The text below walks through data of patent US20210260101A1, “POTENTIATED ANTIBIOTIC COMPOSITIONS AND METHODS OF USE FOR TREATING BACTERIAL INFECTIONS AND BIOFILMS” (priority 2018, published 2021).

The subject of assay [1] is MRSA clinical isolate OU11. Kind of assay: Clinical laboratory susceptibility (MicroScan), MRSA isolate 11. The conditions noted are these: MicroScan PC33 gram positive panel. It counts as cell-based, S. aureus.
Assay [2] has as its system MRSA clinical isolate OU6. Kind of assay: Clinical laboratory susceptibility (MicroScan), MRSA isolate 6. It counts as cell-based, S. aureus. The note with it: MicroScan PC33 gram positive panel.
The test system of a further assay is MRSA USA 300 ATCC 1717. Kind of assay: Checkerboard MIC assay against MRSA USA300 (Example 1). It counts as cell-based, Staphylococcus aureus. The note with it: MRSA USA300; for MIC: Staphylococcus aureus, agent alone, read-out: MIC of antibiotic only.
For a further assay, the system named is MRSA OU6 biofilms. Kind of assay: MBEC assay (MICCP and MBEC), MRSA OU6. It counts as cell-based, Staphylococcus aureus. Here is the method: (§1) Bacterial culture was inoculated in an MBEC pronged-inoculator and incubated for 24 hr to allow biofilm formation. […] The change in optical density at 600 nm (Δ OD600) was measured. Minimum inhibitory concentration (MIC) of each drug is determined as the lowest concentration that inhibited cell growth (ΔOD600<0.05). Fractional inhibitory concentration index (FICI) was calculated as: […]
(§2) Synergistic effects are determined using EUCAST guidelines: synergy (FICI≤0.5), additivity (0.5<FICI<1), and indifference (FICI>1). The treated pronged-inoculator was then washed and transferred to a recovery plate with 200 μL MHB/well to sonicate and recover any remaining biofilm bacteria. The recovery plate was then incubated overnight before measuring ΔOD600 to determine MBECs and FICIs of the drugs tested on the biofilms.
(§3) MBEC assays were utilized on MRSA OU6 and MRSA OU11 and a lab strain MRSA ATCC 43300. The MRSA bacteria were used to inoculate a 96-well inoculation plate, where MRSA biofilms were grown on prongs protruding from the plate lid, known as the MBEC inoculator lid and based on the Calgary biofilm device. […] The final step was moving the treated inoculation lid to a third plate (the recovery plate) containing growth-media only and using sonication to dislodge the biofilm and recover cells remaining in the biofilm. In this manner, the synergy of BPEI and ampicillin against MRSA biofilms was evaluated. Standard CLSI (Clinical & Laboratory Standards Institute) guidelines describe a standard MIC assay using 96-well plates inoculated with a standard cell density, usually ˜10^6 CFU/mL. However, the MIC data reported here is non-standard because, rather than inoculation via micropipette transfer from an overnight culture, inoculation of the challenge plate occurs from the biofilm-coated inoculation lid where treatment challenge disrupts the protective biofilm EPS matrix. […] The MBEC is determined from cell growth in the recovery plate and reflects the ability of BPEI600, ampicillin, or its combinations to kill the biofilm remaining attached to the prongs of the inoculation lid. […]

In another assay the test system is MRSA 43300 biofilms. Kind of assay: MBEC assay (MICCP and MBEC), MRSA 43300. It counts as cell-based, Staphylococcus aureus. Here is the method: as §1, §2, §3
The test system of another assay is MRSA OU11 biofilms. Kind of assay: MBEC assay (MICCP and MBEC), MRSA OU11. It counts as cell-based, Staphylococcus aureus. Here is the method: as §1, §2, §3
Assay [3] deals with clinical isolates OU15, OU19, and OU22. Kind of assay: Checkerboard assay, isolates OU15, OU19 and OU22 reported together. It is filed as cell-based, Pseudomonas aeruginosa. The note with it: for MIC: Pseudomonas aeruginosa; for interaction with BPEI600: isolates OU15, OU19, OU22 (data not shown). As to the method: (§4) Cells were grown at 35° C. with shaking. The OD600 (optical density at 600 nm) was monitored and recorded for each sample over 24 hr. Each checkerboard trial was done in triplicate using sterile Greiner CellStar™ flat bottom polystyrene plates, catalog #655180. Each growth curve was done in duplicate.

Assay [4] relates to S. epidermidis ATCC 35984 (MRSE 35984). Kind of assay: MIC/potentiation against MRSE 35984 (Example 1). It counts as cell-based, Staphylococcus epidermidis. The conditions noted are these: for MIC of antibiotic only: agent alone.
Assay [5] concerns S. epidermidis ATCC 12228 (MSSE 12228). Kind of assay: MIC/potentiation against MSSE 12228. It counts as cell-based, Staphylococcus epidermidis. The note with it: for MIC of antibiotic only: agent alone.
Another assay deals with PA OU22. Kind of assay: Checkerboard assay, PA OU22. It is filed as cell-based, Pseudomonas aeruginosa. The conditions noted are these: Pseudomonas aeruginosa, PA OU22. As to the method:
as §4

A further assay concerns PA OU15. Kind of assay: Checkerboard assay, PA OU15. The note with it: Pseudomonas aeruginosa, PA OU15. It counts as cell-based, Pseudomonas aeruginosa. As to the method: as §4
A further assay relates to PA OU19. Kind of assay: Checkerboard assay, PA OU19. It is filed as cell-based, Pseudomonas aeruginosa. The conditions noted are these: Pseudomonas aeruginosa, PA OU19. As to the method: as §4
The mark [6] stands for this setting: read-out: cefepime MIC with 16 μg/mL of BPEI600.

≈ marks a conversion by molar mass, not a printed value. Like-named read-outs stand apart in the source and are kept apart here.

Consider Gentamicin, for which the MIC in assay [1] and in assay [2] was at most 4 µg/mL each time.
Turning to `CCCCCCCCCC(=O)N[C@@H](Cc1c[nH]c2ccccc12)C(=O)N[C@H](CC(N)=O)C(=O)N[C@@H](CC(=O)O)C(=O)N[C@@H]1C(=O)NCC(=O)N[C@@H](CCCN)C(=O)N[C@@H](CC(=O)O)C(=O)N[C@H](C)C(=O)N[C@@H](CC(=O)O)C(=O)NCC(=O)N[C@H](CO)C(=O)N[C@@H]([C@H](C)CC(=O)O)C(=O)N[C@@H](CC(=O)c2ccccc2N)C(=O)O[C@@H]1C` [Daptomycin], the MIC in assay [1] and in [2] was at most 0.5 µg/mL in each case.
With `CO/N=C(\C(=O)N[C@@H]1C(=O)N2C(C(=O)O)=CCS[C@H]12)c1csc(N)n1` [ceftizoxime], in the assay on MRSA USA 300 ATCC 1717, the “MIC, antibiotic + 32 μg/ml (20 μM) PEG1000BPEI600” value turned out to be 8 µg/mL; the “MIC, antibiotic + 64 μg/ml (40 μM) PEG1000BPEI600” value was found to be 0.5 µg/mL; the MIC was 128 µg/mL.
On to `CC1(C)S[C@@H]2[C@H](NC(=O)[C@H](N)c3ccccc3)C(=O)N2[C@H]1C(=O)O` [ampicillin], for which the MICCP amounted to 256 µg/mL in the assay with MRSA OU6 biofilms (MRSA OU6, challenge plate, agent alone); 128 µg/mL in the assay with MRSA 43300 biofilms (MRSA 43300, challenge plate, agent alone); 128 µg/mL with MRSA OU11 biofilms (MRSA OU11, challenge plate, agent alone). In addition, the entries for the “Ampicillin MBEC + 64 μg/mL BPEI” value in the assay on MRSA OU6 biofilms (MRSA OU6 biofilm), in the assay on MRSA 43300 biofilms (MRSA 43300 biofilm) and in the assay with MRSA OU11 biofilms (MRSA OU11 biofilm) were 64 µg/mL, 2 µg/mL and 32 µg/mL, respectively. Moreover, the MBEC is over 256 µg/mL with MRSA OU6 biofilms (MRSA OU6 biofilm, agent alone); over 256 µg/mL in the assay on MRSA 43300 biofilms (MRSA 43300 biofilm, agent alone); over 256 µg/mL with MRSA OU11 biofilms (MRSA OU11 biofilm, agent alone).
As for `CN(C)[C@@H]1C(O)=C(C(N)=O)C(=O)[C@@]2(O)C(O)=C3C(=O)c4c(O)cccc4[C@@](C)(O)[C@H]3C[C@@H]12` [Tetracycline], the MIC in assay [1] and in assay [2] was at most 4 µg/mL in each case.
Turning to `C[C@@H](O)[C@H]1C(=O)N2C(C(=O)O)=C(SCCN=CN)C[C@H]12` [imipenem], in the assay with MRSA USA 300 ATCC 1717, the “MIC with 4 μg/ml (6.75 μM) 600-Da BPEI” value was determined as 0.03 µg/mL and the MIC amounted to 4 µg/mL.
Consider `CC1(C)S[C@@H]2[C@H](NC(=O)[C@H](N)c3ccc(O)cc3)C(=O)N2[C@H]1C(=O)O` [amoxicillin], for which, in the assay with MRSA USA 300 ATCC 1717, the “MIC with 4 μg/ml (6.75 μM) 600-Da BPEI” value came to 1 µg/mL and the MIC is 4 µg/mL.
For the compound `CC[C@H]1OC(=O)[C@H](C)[C@@H](O[C@H]2C[C@@](C)(OC)[C@@H](O)[C@H](C)O2)[C@H](C)[C@@H](O[C@@H]2O[C@H](C)C[C@H](N(C)C)[C@H]2O)[C@](C)(O)C[C@@H](C)C(=O)[C@H](C)[C@@H](O)[C@]1(C)O` [Erythromycin], the MIC is 256 µg/mL in [3], 64 µg/mL in [3] (read-out: erythromycin MIC in the presence of 16 μg/mL of BPEI600), over 4 µg/mL in assay [1] and over 4 µg/mL in [2]. In addition, in [3] (data not shown), the “factor of reduction of erythromycin MIC by BPEI600” value came to 4. Further, in assay [3], the “interaction with BPEI600” value is on record as “exhibited synergy”.
Consider `C[C@@H](O)[C@H]1C(=O)N2C(C(=O)O)=C(S[C@@H]3CN[C@H](C(=O)N(C)C)C3)[C@H](C)[C@H]12` [meropenem], for which the MIC in assay [3] (isolates OU15, OU19, OU22, agent alone (data not shown), read-out: MIC) was 16 to 64 µg/mL. In addition, the “interaction with BPEI600” value in assay [3] is on record as “no synergy (no synergy (FICI≥1))”.
For the compound `CC(=O)NC[C@H]1CN(c2ccc(N3CCOCC3)c(F)c2)C(=O)O1` [linezolid], in [4], the “MIC, antibiotic + 2 μg/ml (3.375 μM) 600-Da BPEI” value (“MIC, antibiotic + 2 μg/ml” below) came to 0.5 µg/mL; the “MIC, antibiotic + 4 μg/ml (6.75 μM) 600-Da BPEI” value (shortened to “MIC, antibiotic + 4 μg/ml”) turned out to be 0.25 µg/mL; the “MIC of antibiotic only” value stood at 1 µg/mL. Also, in the assay on MRSA USA 300 ATCC 1717, the “MIC with 4 μg/ml (6.75 μM) 600-Da BPEI” value was 0.5 µg/mL and the MIC was determined as 0.5 µg/mL. Moreover, in [1], the MIC is 2 µg/mL (≈ 5.93 µM). Moreover, the MIC in [2] came to 2 µg/mL (≈ 5.93 µM). In addition, in assay [5], the “MIC, antibiotic + 2 μg/ml” value stood at 0.25 µg/mL; the “MIC, antibiotic + 4 μg/ml” value came out at 0.25 µg/mL; the “MIC of antibiotic only” value was found to be 0.25 µg/mL.
`CO/N=C(\C(=O)N[C@@H]1C(=O)N2C(C(=O)[O-])=C(C[N+]3(C)CCCC3)CS[C@H]12)c1csc(N)n1` [cefepime]: in the assay on MRSA USA 300 ATCC 1717, the “MIC with 4 μg/ml (6.75 μM) 600-Da BPEI” value came to 1 µg/mL. Moreover, the MIC came to 4 µg/mL in the assay with MRSA USA 300 ATCC 1717; 8 µg/mL in the assay on PA OU22 (setting [6]); 128 µg/mL in the assay with PA OU22 (agent alone, read-out: MIC); 0.5 µg/mL in the assay on PA OU15 (setting [6]); 32 µg/mL with PA OU15 (agent alone, read-out: MIC); 8 µg/mL in the assay with PA OU19 (setting [6]). Further, the MIC with PA OU19 (agent alone, read-out: MIC) was determined as 64 µg/mL.
Take `CN[C@H](CC(C)C)C(=O)N[C@H]1C(=O)N[C@@H](CC(N)=O)C(=O)N[C@H]2C(=O)N[C@H]3C(=O)N[C@H](C(=O)N[C@H](C(=O)O)c4cc(O)cc(O)c4-c4cc3ccc4O)[C@H](O)c3ccc(c(Cl)c3)Oc3cc2cc(c3O[C@@H]2O[C@H](CO)[C@@H](O)[C@H](O)[C@H]2O[C@H]2C[C@](C)(N)[C@H](O)[C@H](C)O2)Oc2ccc(cc2Cl)[C@H]1O` [vancomycin]: in assay [4], the “MIC, antibiotic + 2 μg/ml” value worked out at 2 µg/mL; the “MIC, antibiotic + 4 μg/ml” value worked out at 0.5 µg/mL; the “MIC of antibiotic only” value came out at 2 µg/mL. Moreover, in assay [1], the MIC was 1 µg/mL (≈ 0.69 µM). The compound also had an MIC in assay [2] of 2 µg/mL (≈ 1.38 µM). In assay [5], the “MIC, antibiotic + 2 μg/ml” value worked out at 1 µg/mL; the “MIC, antibiotic + 4 μg/ml” value was found to be 1 µg/mL; the “MIC of antibiotic only” value stood at 1 µg/mL.
As for `CC1=C(C(=O)O)N2C(=O)[C@@H](NC(=O)[C@H](N)c3ccccc3)[C@H]2SC1` [cephalexin], in the assay on MRSA USA 300 ATCC 1717, the “MIC with 4 μg/ml (6.75 μM) 600-Da BPEI” value is 0.5 µg/mL and the MIC turned out to be 2 µg/mL.
Take `CCC[C@@H]1C[C@@H](C(=O)N[C@@H]([C@H]2O[C@H](SC)[C@H](O)[C@@H](O)[C@H]2O)[C@H](C)Cl)N(C)C1` [Clindamycn]: the MIC in assay [1] and in assay [2] was over 4 µg/mL throughout.
